Results from patent US6323340A, “Phthalocyanine compound, method for production thereof, and near infrared absorption dye using the compound” (Nippon Shobukai Co., Ltd., priority 1999, dated 2001).

What was measured:
[1] = maximum absorption wavelength and absorptivity coefficient in toluene (spectrophotometer); assay type: physicochemical; details: for Absorptivity Coefficient ε: at maximum absorption wavelength
Method: By the use of a spectrophotometer (Shimadzu Seisakusho Ltd., UV-3100), the phthalocyanine compound obtained in this example [VOPc(2,5-Cl2 PhO)8 (2,6-Br2 -4-CH3 PhO)4 {Ph(CH3)CHNH}3 F] was tested for the maximum absorption wavelength and the absorptivity coefficient in toluene.

[2] = transmittance to the visible ray of chloroform solution (JIS R3106); assay type: physicochemical; details: 1 cm quartz cell, lowest transmittance at 750 to 1050 nm set to 5 to 6%
Method: In a quartz cell of 1 cm, this phthalocyanine compound was diluted with chloroform until the lowest value of the transmittance at 750 to 1050 nm reached a level in the range of 5 to 6%.

[3] = solubility in toluene and methylethyl ketone at room temperature; details: 25° C.
Method: At a room temperature (25° C.), the phthalocyanine compound was gradually dissolved in each the solutions of toluene and methylethyl ketone (MEK) (each 10 ml in volume). The solutions in the process of dissolving the compound were visually examined to find the finally dissolved amounts of the compound, i.e. the concentrations (solubility) of the phthalocyanine compound as a solute in the saturated solutions.

For “VOPc(2,6-Cl2 PhO)8 (2,6-(CH3)2 PhO)4 {Ph(CH3)CHNH}3 F [Example 4]”, the “Maximum Absorption Wavelength” value [1] was 835 nm, the “Absorptivity Coefficient ε” value [1] was 92000 and the “Transmittance to Visible Ray” value [2] was 83%.
For “octafluoro-octakisanilino oxyvanadium phthalocyanine [Control 2, reference compound]”, the “Maximum Absorption Wavelength” value [1] was 860 nm and the “Transmittance to Visible Ray” value [2] was 48%.
In the case of “VOPc(2,5-Cl2 PhO)8 (2,6-(CH3)2 Pho)4 (PhCH2 NH)4 [Example 7]”, the “Maximum Absorption Wavelength” value [1] is reported as 880 nm, the “Absorptivity Coefficient ε” value [1] is reported as 128200 and the “Transmittance to Visible Ray” value [2] is reported as 83%.
In the case of “CuPc(2,5-Cl2 PhO)8 (2,6-(CH3)2 PhO)4 (PhCH2 NH)4 [Example 8]”, the “Maximum Absorption Wavelength” value [1] is reported as 810 nm, the “Absorptivity Coefficient ε” value [1] is reported as 154000 and the “Transmittance to Visible Ray” value [2] is reported as 85%.
With “VOPc(4-CNPhO)8 (2,6-(CH3)2 PhO)4 {Ph(CH3)CHNH}3 F [Example 6]” the “Maximum Absorption Wavelength” value [1] was 834 nm, the “Absorptivity Coefficient ε” value [1] was 83000 and the “Transmittance to Visible Ray” value [2] was 81%. For the same substance, the “Solubility MEK” value ([3]; methylethyl ketone) was “.circleincircle. (a solubility of not less than 5% by weight)” and the “Solubility Toluene” value ([3]; toluene) was “.circleincircle. (a solubility of not less than 5% by weight)”.
For “VOPc(2,5-Cl2 PhO)8 (2,6-(CH3)2 PhO)4 {Ph(CH3)CHNH}3 F [Example 3]”, the “Maximum Absorption Wavelength” value [1] was 834 nm, the “Absorptivity Coefficient ε” value [1] was 84000 and the “Transmittance to Visible Ray” value [2] was 82%.
In the case of “VOPc(PhS)8 (2,6-(CH3)2 PhO)4 (PhCH2 NH)4 [Example 9]”, the “Maximum Absorption Wavelength” value [1] is reported as 920 nm, the “Absorptivity Coefficient ε” value [1] is reported as 130800 and the “Transmittance to Visible Ray” value [2] is reported as 79%.
In the case of “VOPc(4-CNPhO)8 (2,6-Br2 -4-CH3 PhO)4 {Ph(CH3)CHNH}3 F [Example 5]”, the “Maximum Absorption Wavelength” value [1] is reported as 836 nm, the “Absorptivity Coefficient ε” value [1] is reported as 72000 and the “Transmittance to Visible Ray” value [2] is reported as 80%.
For “VOPc(2,5-Cl2 PhO)8 (2,6-Br2 -4-CH3 PhO)4 {Ph(CH3)CHNH}3 F [Example 1]”, the “Maximum Absorption Wavelength” value [1] was 835 nm, the “Absorptivity Coefficient ε” value [1] was 76000 and the “Transmittance to Visible Ray” value [2] was 79%.
In the case of “VOPc(2,5-Cl2 PhO)8 (2,6-Br2 -4-CH3 PhO)4 {PhCH2 NH}3 F [Example 2]”, the “Maximum Absorption Wavelength” value [1] is reported as 840 nm, the “Absorptivity Coefficient ε” value [1] is reported as 68000 and the “Transmittance to Visible Ray” value [2] is reported as 81%.
With “VOPc(PhNH)8 (PhS)8 [Control 1, reference compound]” the “Maximum Absorption Wavelength” value [1] was 950 nm and the “Transmittance to Visible Ray” value [2] was 50%.
